Results published in patent US12209102B2, “Heterocyclic compounds and uses thereof” (Kumquat Biosciences Inc., priority 2022, dated 2025).

Tests used:
Assay type in all cases: biochemical
[1] = molecular target: T1, K-Ras G12V (Homo sapiens, UniProt P01116, G12V); assay: HTRF resonance energy transfer assay, K-Ras G12V / SOS1 interaction; details: HTRF assay of Example 5; read-out: IC50 against K-Ras G12V
T1 construct: made in house; host or cells: E. coli BL21 (DE3)
In short: (§1)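 Read-out: HTRF 665/620 nm ratio (excitation 337 nm) after roughly 10 min or longer incubation, used to derive IC50. Donor anti-GST-Eu on GST-K-Ras; acceptor anti-6His-XL665 on His-hSOS1. Duplicate dose series from 10 μM down to 0.01 μM.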

[2] = molecular target: T2, K-Ras G12D (Homo sapiens, UniProt P01116, G12D); assay: HTRF resonance energy transfer assay, K-Ras G12D / SOS1 interaction; details: HTRF assay of Example 5; read-out: IC50 against K-Ras G12D
T2 construct: made in house; host or cells: E. coli BL21 (DE3)
In short: as §1

[3] = molecular target: T3, K-Ras G12S (Homo sapiens, UniProt P01116, G12S); assay: HTRF resonance energy transfer assay, K-Ras G12S / SOS1 interaction; details: HTRF assay of Example 5; read-out: IC50 against K-Ras G12S
T3 construct: made in house; host or cells: E. coli BL21 (DE3)
In short: as §1

[4] = molecular target: T4, K-Ras WT (Homo sapiens, UniProt P01116); assay: HTRF resonance energy transfer assay, K-Ras WT / SOS1 interaction; details: HTRF assay of Example 5; read-out: IC50 against K-Ras WT
T4 construct: made in house; host or cells: E. coli BL21 (DE3)
In short: as §1

T1 sequence (P01116 1-188 isoform P01116-2 G12V): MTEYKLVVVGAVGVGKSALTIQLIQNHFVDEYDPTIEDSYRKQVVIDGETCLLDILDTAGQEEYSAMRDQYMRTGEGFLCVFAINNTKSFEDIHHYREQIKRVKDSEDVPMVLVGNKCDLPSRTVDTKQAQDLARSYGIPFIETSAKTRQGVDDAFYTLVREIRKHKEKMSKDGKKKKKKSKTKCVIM
T3 sequence (P01116 1-188 isoform P01116-2 G12S): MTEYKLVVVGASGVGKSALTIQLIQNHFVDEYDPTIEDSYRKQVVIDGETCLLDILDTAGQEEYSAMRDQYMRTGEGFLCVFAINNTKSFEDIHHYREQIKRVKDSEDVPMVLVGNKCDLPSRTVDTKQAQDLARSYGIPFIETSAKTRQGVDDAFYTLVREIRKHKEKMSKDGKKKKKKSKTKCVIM
T4 sequence (P01116 1-188 isoform P01116-2): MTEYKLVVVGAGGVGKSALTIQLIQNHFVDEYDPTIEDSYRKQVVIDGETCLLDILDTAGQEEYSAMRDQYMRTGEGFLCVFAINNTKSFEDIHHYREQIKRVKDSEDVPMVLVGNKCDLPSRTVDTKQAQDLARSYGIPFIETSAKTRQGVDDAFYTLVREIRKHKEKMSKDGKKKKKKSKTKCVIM
T2 sequence (P01116 1-188 isoform P01116-2 G12D): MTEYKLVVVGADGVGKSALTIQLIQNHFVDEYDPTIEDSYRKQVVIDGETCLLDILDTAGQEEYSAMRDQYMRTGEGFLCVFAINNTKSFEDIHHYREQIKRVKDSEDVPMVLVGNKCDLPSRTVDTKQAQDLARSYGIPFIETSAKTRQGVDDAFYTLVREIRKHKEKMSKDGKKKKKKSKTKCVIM

Row | SMILES | IC50 [1] [µM] | IC50 [2] [µM] | IC50 [3] [µM] | IC50 [4] [µM]
1 | Cn1nc(NC(=O)C2CN2)cc1CN1CCOc2c(Cl)c(-c3ccc(F)c4sc(N)c(C#N)c34)c(F)c3nc(OC[C@@]45CCCN4C[C@H](F)C5)nc1c23 (stereo partly drawn) [Compound 999, N-(5-((9-(2-amino-3-cyano-7-fluorobenzo[b]thiophen-4-yl)-8-chloro-10-fluoro-2-(((2R,7aS)-2-fluorotetrahydro-1H-pyrrolizin-7a(5H)-yl)methoxy)-5,6-dihydro-4H-[1,4]oxazepino[5,6,7-de]quinazolin-4-yl)methyl)-1-methyl-1H-pyrazol-3-yl)aziridine-2-carboxamide] | < 0.1 | < 0.1 | < 0.1 | < 0.1
2 | C=C[C@H]1COc2c(Cl)c(-c3ccc(F)c4sc(N)c(C#N)c34)c(F)c3nc(OC[C@@]45CCCN4C[C@H](F)C5)nc(c23)N1CCOC (single isomer, unassigned) [Compound 917] | < 0.1 | < 0.1 | < 0.1 | < 0.1
3 | C=C[C@H]1COc2c(Cl)c(-c3ccc(F)c4sc(N)c(C#N)c34)c(F)c3nc(OC[C@@]45CCCN4C[C@H](F)C5)nc(c23)N1CCC(F)F (single isomer, unassigned) [Compound 906] | < 0.1 | < 0.1 | < 0.1 | < 0.1
4 | N#Cc1c(N)sc2c(F)ccc(-c3c(Cl)c4c5c(nc(OC[C@@]67CCCN6C[C@H](F)C7)nc5c3F)N(C3CCCNCC3)CCO4)c12 (stereo partly drawn) [Compound 1059, 2-amino-4-(4-(azepan-4-yl)-8-chloro-10-fluoro-2-(((2R,7aS)-2-fluorotetrahydro-1H-pyrrolizin-7a(5H)-yl)methoxy)-5,6-dihydro-4H-[1,4]oxazepino[5,6,7-de]quinazolin-9-yl)-7-fluorobenzo[b]thiophene-3-carbonitrile] | < 0.1 | < 0.1 | < 0.1 | < 0.1
5 | CN(CCCN1CCOc2c(Cl)c(-c3ccc(F)c4sc(N)c(C#N)c34)c(F)c3nc(OC[C@@]45CCCN4C[C@H](F)C5)nc1c23)C(=O)[C@H]1CN1 [Compound 908, (2R)-N-(3-(9-(2-amino-3-cyano-7-fluorobenzo[b]thiophen-4-yl)-8-chloro-10-fluoro-2-(((2R,7aS)-2-fluorotetrahydro-1H-pyrrolizin-7a(5H)-yl)methoxy)-5,6-dihydro-4H-[1,4]oxazepino[5,6,7-de]quinazolin-4-yl)propyl)-N-methylaziridine-2-carboxamide] | < 0.1 | < 0.1 | < 0.1 | < 0.1
6 | C#C[C@H]1COc2c(Cl)c(-c3ccc(F)c4sc(N)c(C#N)c34)c(F)c3nc(OC[C@@]45CCCN4C[C@H](F)C5)nc(c23)N1CCC(F)F [Compound 788, 2-amino-4-((5S)-8-chloro-4-(3,3-difluoropropyl)-5-ethynyl-10-fluoro-2-(((2R,7aS)-2-fluorotetrahydro-1H-pyrrolizin-7a(5H)-yl)methoxy)-5,6-dihydro-4H-[1,4]oxazepino[5,6,7-de]quinazolin-9-yl)-7-fluorobenzo[b]thiophene-3-carbonitrile] | < 0.1 | < 0.1 | < 0.1 | < 0.1
7 | C#C[C@H]1COc2c(Cl)c(-c3ccc(F)c4sc(N)c(C#N)c34)c(F)c3nc(OC[C@@]45CCCN4C[C@H](F)C5)nc(c23)N1C1CCOC1 (stereo partly drawn) [Compound 843, 2-amino-4-((5S)-8-chloro-5-ethynyl-10-fluoro-2-(((2R,7aS)-2-fluorotetrahydro-1H-pyrrolizin-7a(5H)-yl)methoxy)-4-(tetrahydrofuran-3-yl)-5,6-dihydro-4H-[1,4]oxazepino[5,6,7-de]quinazolin-9-yl)-7-fluorobenzo[b]thiophene-3-carbonitrile] | < 0.1 | < 0.1 | < 0.1 | < 0.1
8 | N#Cc1c(N)sc2c(F)ccc(-c3c(Cl)c4c5c(nc(OC[C@@]67CCCN6C[C@H](F)C7)nc5c3F)N(CC(F)F)C(C3CC3(F)F)CO4)c12 (stereo partly drawn) [Compound 987, 2-amino-4-(8-chloro-5-(2,2-difluorocyclopropyl)-4-(2,2-difluoroethyl)-10-fluoro-2-(((2R,7aS)-2-fluorotetrahydro-1H-pyrrolizin-7a(5H)-yl)methoxy)-5,6-dihydro-4H-[1,4]oxazepino[5,6,7-de]quinazolin-9-yl)-7-fluorobenzo[b]thiophene-3-carbonitrile] | < 0.1 | < 0.1 | < 0.1 | < 0.1

Next, values leading:

Row | IC50 [1] [µM] | IC50 [2] [µM] | IC50 [3] [µM] | IC50 [4] [µM] | SMILES
9 | < 0.1 | < 0.1 | < 0.1 | < 0.1 | N#Cc1c(N)sc2c(F)ccc(-c3c(Cl)c4c5c(nc(OC[C@@]67CCCN6C[C@H](F)C7)nc5c3F)N(CC3CC3C#N)CCO4)c12 (stereo partly drawn) [Compound 738, 2-amino-4-(8-chloro-4-((2-cyanocyclopropyl)methyl)-10-fluoro-2-(((2R,7aS)-2-fluorotetrahydro-1H-pyrrolizin-7a(5H)-yl)methoxy)-5,6-dihydro-4H-[1,4]oxazepino[5,6,7-de]quinazolin-9-yl)-7-fluorobenzo[b]thiophene-3-carbonitrile]
10 | < 0.1 | < 0.1 | < 0.1 | < 0.1 | C[C@H]1C[C@@H](N2CCOc3c(Cl)c(-c4ccc(F)c5sc(N)c(C#N)c45)c(F)c4nc(OC[C@@]56CCCN5C[C@H](F)C6)nc2c34)CN1 [Compound 1010, 2-amino-4-(8-chloro-10-fluoro-2-(((2R,7aS)-2-fluorotetrahydro-1H-pyrrolizin-7a(5H)-yl)methoxy)-4-((3R,5S)-5-methylpyrrolidin-3-yl)-5,6-dihydro-4H-[1,4]oxazepino[5,6,7-de]quinazolin-9-yl)-7-fluorobenzo[b]thiophene-3-carbonitrile]
11 | < 0.1 | < 0.1 | < 0.1 | < 0.1 | CC(O)C1COc2c(Cl)c(-c3ccc(F)c4sc(N)c(C#N)c34)c(F)c3nc(OC[C@@]45CCCN4C[C@H](F)C5)nc(c23)N1CC1CNC1 (stereo partly drawn) [Compound 848, 2-amino-4-(4-(azetidin-3-ylmethyl)-8-chloro-10-fluoro-2-(((2R,7aS)-2-fluorotetrahydro-1H-pyrrolizin-7a(5H)-yl)methoxy)-5-(1-hydroxyethyl)-5,6-dihydro-4H-[1,4]oxazepino[5,6,7-de]quinazolin-9-yl)-7-fluorobenzo[b]thiophene-3-carbonitrile]
12 | < 0.1 | < 0.1 | < 0.1 | < 0.1 | N#Cc1c(N)sc2c(F)ccc(-c3c(Cl)c4c5c(nc(OC[C@@]67CCCN6C[C@H](F)C7)nc5c3F)N(C3CC35CCNC5)CCO4)c12 (stereo partly drawn) [Compound 735, 2-amino-4-(8-chloro-10-fluoro-2-(((2R,7aS)-2-fluorotetrahydro-1H-pyrrolizin-7a(5H)-yl)methoxy)-4-(5-azaspiro[2.4]heptan-1-yl)-5,6-dihydro-4H-[1,4]oxazepino[5,6,7-de]quinazolin-9-yl)-7-fluorobenzo[b]thiophene-3-carbonitrile]
13 | < 0.1 | < 0.1 | < 0.1 | < 0.1 | N#Cc1c(N)sc2c(F)ccc(-c3c(Cl)c4c5c(nc(OC[C@@]67CCCN6C[C@H](F)C7)nc5c3F)NCCC(CO)O4)c12 (stereo partly drawn) [Compound 1214, 2-amino-4-(9-chloro-11-fluoro-2-(((2R,7aS)-2-fluorotetrahydro-1H-pyrrolizin-7a(5H)-yl)methoxy)-7-(hydroxymethyl)-4,5,6,7-tetrahydro-[1,5]oxazocino[4,3,2-de]quinazolin-10-yl)-7-fluorobenzo[b]thiophene-3-carbonitrile]
14 | < 0.1 | < 0.1 | < 0.1 | < 0.1 | C#Cc1c(F)ccc2cc(O)cc(-c3nc4c5c(nc(OC[C@@]67CCCN6C[C@H](F)C7)nc5c3F)N(C3CCCN(C=O)C3)CCO4)c12 (stereo partly drawn) [Compound 1066, 3-(5-(8-ethynyl-7-fluoro-3-hydroxynaphthalen-1-yl)-4-fluoro-2-(((2R,7aS)-2-fluorotetrahydro-1H-pyrrolizin-7a(5H)-yl)methoxy)-8,9-dihydro-10H-7-oxa-1,3,6,10-tetraazacyclohepta[de]naphthalen-10-yl)piperidine-1-carbaldehyde]
15 | < 0.1 | < 0.1 | < 0.1 | < 0.1 | Nc1nc2c(-c3c(Cl)c4c5c(nc(OC[C@@]67CCCN6C[C@H](F)C7)nc5c3F)N(C3CCNCC3)CCO4)ccc(F)c2s1 [Compound 898, 4-(8-chloro-10-fluoro-2-(((2R,7aS)-2-fluorotetrahydro-1H-pyrrolizin-7a(5H)-yl)methoxy)-4-(piperidin-4-yl)-5,6-dihydro-4H-[1,4]oxazepino[5,6,7-de]quinazolin-9-yl)-7-fluorobenzo[d]thiazol-2-amine]
16 | < 0.1 | < 0.1 | < 0.1 | < 0.1 | CN1c2nc(OC[C@@]34CCCN3C[C@H](F)C4)nc3c(F)c(-c4ccc(F)c5sc(N)c(C#N)c45)c(Cl)c(c23)OC[C@@H]1CNC(=O)C(F)F [Compound 1018, N-(((5S)-9-(2-amino-3-cyano-7-fluorobenzo[b]thiophen-4-yl)-8-chloro-10-fluoro-2-(((2R,7aS)-2-fluorotetrahydro-1H-pyrrolizin-7a(5H)-yl)methoxy)-4-methyl-5,6-dihydro-4H-[1,4]oxazepino[5,6,7-de]quinazolin-5-yl)methyl)-2,2-difluoroacetamide]
